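These data come from cells grown in 96-well plates and exposed to compound for 48 hours at five concentrations. Here, GI50 denotes the concentration required for 50% inhibition of growth. At the TGI there is no net growth.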
Legend:
Assay in all cases: NCI anticancer screen, dose series, 48 h
[1] = tested on: CCRF-CEM leukemia
[2] = tested on: SF-268 CNS
[3] = tested on: SK-OV-3 ovarian
[4] = tested on: 786-0 renal
[5] = tested on: TK-10 renal
[6] = tested on: ACHN renal
[7] = tested on: HS 578T breast
[8] = tested on: CAKI-1 renal
[9] = tested on: RPMI-8226 leukemia
[10] = tested on: A498 renal
[11] = tested on: HCT-116 colon
[12] = tested on: RXF 393 renal
[13] = tested on: PC-3 prostate
[14] = tested on: KM12 colon
[15] = tested on: M14 melanoma
[16] = tested on: SW-620 colon
[17] = tested on: A549 NSCLC
[18] = tested on: EKVX NSCLC
[19] = tested on: SF-539 CNS
[20] = tested on: NCI-H23 lung
[21] = tested on: UO-31 renal
[22] = tested on: MCF7 breast
[23] = tested on: U251 CNS
[24] = tested on: SR leukemia
[25] = tested on: SN12C renal
[26] = tested on: NCI-H226 lung
[27] = tested on: HL-60(TB) leukemia
[28] = tested on: MOLT-4 leukemia
[29] = tested on: OVCAR-4 ovarian
[30] = tested on: HCT-15 colon
[31] = tested on: COLO 205 colon
[32] = tested on: HT29 colon
[33] = tested on: NCI-H522 lung
[34] = tested on: MALME-3M melanoma
[35] = tested on: LOX IMVI melanoma
[36] = tested on: UACC-62 melanoma
[37] = tested on: HCC-2998 colon
[38] = tested on: OVCAR-3 ovarian
[39] = tested on: MDA-MB-231 breast
[40] = tested on: NCI-H460 lung
[41] = tested on: SK-MEL-2 melanoma
[42] = tested on: IGROV1 ovarian
[43] = tested on: DU-145 prostate
[44] = tested on: SNB-19 CNS
[45] = tested on: OVCAR-5 ovarian
[46] = tested on: OVCAR-8 ovarian
[47] = tested on: SNB-75 CNS
[48] = tested on: T-47D breast
[49] = tested on: MDA-MB-435
[50] = tested on: SK-MEL-5 melanoma
[51] = tested on: SF-295 CNS
[52] = tested on: HOP-92 NSCLC
[53] = tested on: HOP-62 NSCLC
[54] = tested on: UACC-257 melanoma
[55] = tested on: BT-549 breast
[56] = tested on: K-562 leukemia
[57] = tested on: SK-MEL-28 melanoma
[58] = tested on: NCI/ADR-RES ovarian

CC(C)(C(=O)NCC(F)(F)C(F)(F)F)C(=O)N[C@@H]1C(=O)Nc2ccccc2-c2ccccc21
GI50 [1]: 45.3 µM | TGI [1]: > 100 µM | GI50 [2]: 67.5 µM | TGI [2]: > 100 µM | GI50 [3]: 99 µM | TGI [3]: > 100 µM | GI50 [4]: > 64.3 µM | TGI [4]: > 100 µM | GI50 [5]: > 100 µM | TGI [5]: > 100 µM | GI50 [6]: 50.4 µM | TGI [6]: > 100 µM | GI50 [7]: > 56 µM | TGI [7]: > 100 µM | GI50 [8]: 45.4 µM | TGI [8]: > 100 µM | GI50 [9]: 54.5 µM | TGI [9]: > 100 µM | GI50 [10]: 50.3 µM | TGI [10]: > 100 µM | GI50 [11]: 46.1 µM | TGI [11]: > 100 µM | GI50 [12]: 20 µM | TGI [12]: > 78.7 µM | GI50 [13]: 50.8 µM | TGI [13]: > 100 µM | GI50 [14]: 73.3 µM | TGI [14]: > 100 µM | GI50 [15]: 38.8 µM | TGI [15]: > 100 µM | GI50 [16]: > 70.2 µM | TGI [16]: > 100 µM | GI50 [17]: 51.9 µM | TGI [17]: > 100 µM | GI50 [18]: 52.7 µM | TGI [18]: > 100 µM | GI50 [19]: > 84.8 µM | TGI [19]: > 100 µM | GI50 [20]: > 67 µM | TGI [20]: > 100 µM | GI50 [21]: 32.3 µM | TGI [21]: > 100 µM | GI50 [22]: 27.3 µM | TGI [22]: > 100 µM | GI50 [23]: > 78.5 µM | TGI [23]: > 100 µM | GI50 [24]: 35.5 µM | TGI [24]: 99 µM | GI50 [25]: > 85 µM | TGI [25]: > 100 µM | GI50 [26]: 30.1 µM | TGI [26]: > 100 µM | GI50 [27]: 37.5 µM | TGI [27]: > 100 µM | GI50 [28]: 40.3 µM | TGI [28]: > 100 µM | GI50 [29]: 34.1 µM | TGI [29]: > 100 µM | GI50 [30]: 51.3 µM | TGI [30]: > 100 µM | GI50 [31]: 34 µM | TGI [31]: > 100 µM | GI50 [32]: 39.7 µM | TGI [32]: > 100 µM | GI50 [33]: 65.1 µM | TGI [33]: > 100 µM | GI50 [34]: > 61.9 µM | TGI [34]: > 100 µM | GI50 [35]: > 59.2 µM | TGI [35]: > 100 µM | GI50 [36]: 29.2 µM | TGI [36]: > 100 µM | GI50 [37]: 40.6 µM | TGI [37]: > 100 µM | GI50 [38]: 68.8 µM | TGI [38]: > 100 µM | GI50 [39]: 44 µM | TGI [39]: > 100 µM | GI50 [40]: 52.4 µM | TGI [40]: > 100 µM | GI50 [41]: > 57.2 µM | TGI [41]: > 100 µM | GI50 [42]: > 71.6 µM | TGI [42]: > 100 µM | GI50 [43]: > 87.2 µM | TGI [43]: > 100 µM | GI50 [44]: 62.3 µM | TGI [44]: > 100 µM | GI50 [45]: 97 µM | TGI [45]: > 100 µM | GI50 [46]: 55.6 µM | TGI [46]: > 100 µM | GI50 [47]: 21.6 µM | TGI [47]: > 100 µM | GI50 [48]: 23.7 µM | TGI [48]: 99 µM | GI50 [49]: > 63.7 µM | TGI [49]: > 100 µM | GI50 [50]: 16 µM | TGI [50]: 37.5 µM | GI50 [51]: 43.7 µM | TGI [51]: > 100 µM | GI50 [52]: 39.2 µM | TGI [52]: > 100 µM | GI50 [53]: > 93.4 µM | TGI [53]: > 100 µM | GI50 [54]: 47.3 µM | TGI [54]: > 100 µM | GI50 [55]: 36.3 µM | TGI [55]: > 100 µM | GI50 [56]: > 67.3 µM | TGI [56]: > 100 µM | GI50 [57]: 42 µM | TGI [57]: > 100 µM | GI50 [58]: 42.4 µM | TGI [58]: > 100 µM

Source: PubChem BioAssay (NCI)
